Publication PMC8626775, “Anti-schistosomal activities of quinoxaline-containing compounds: From hit identification to lead optimisation” (European Journal of Medicinal Chemistry, 2021)
Read-outs that look alike come from different tables or passages of the source.

Legend:
S. mansoni schistosomula = S. mansoni schistosomula high-throughput phenotype and motility screen (Roboworm), 72 h; assay type: cell-based, Schistosoma mansoni
Protocol: Cercariae derived from the NMRI ([…]) Puerto Rican strain (PR-1) of S. mansoni were shed from two Biomphalaria glabrata strains, the NMRI albino and pigmented outbred strains, under intensified lighting conditions (1 h of incubation at 26 °C). Cercariae were then mechanically transformed into schistosomula as previously described.
High-throughput screening (HTS) of selected compounds was conducted as previously described. Briefly, newly transformed schistosomula were distributed in a 384-well tissue culture plate (PerkinElmer, cat 6007460, seeding density of 120 parasites/well). Each compound (at a single concentration or two-fold titrations) was transferred into individual wells alongside the positive and negative controls (AUR at 10 μM final concentration in 0.625% DMSO and 0.625% DMSO, respectively). Schistosomula/compound co-cultures were then incubated at 37 °C for 72 h in a humidified atmosphere containing 5% CO2. Following the co-culture period, automatic assessment of compound-induced schistosomula motility and phenotypic changes were conducted with the high-content imaging platform Roboworm using the image analysis model previously described by Paveley et al..

[1] = tested on: Juvenile S. mansoni worms; assay: S. mansoni juvenile worm screen (motility score, propidium iodide uptake), 72 h; assay type: cell-based, Schistosoma mansoni; details: juvenile worms, positive controls at 15 μM, Fig. S4
Description: (§1) Mice (Mus musculus HsdOLa:TO - Tuck Ordinary; Envigo, UK) were used for the mammalian-specific propagation of the S. mansoni life cycle. Experimental animals were infected with 4000 or 180 S. mansoni cercariae/mouse and perfused three- or seven-weeks post-infection to obtain S. mansoni juvenile or adult worms, respectively. Preparation steps following perfusion have been described previously. Briefly, the parasite material was washed three times with pre-warmed adult worm media (DMEM (Gibco, Paisley, UK) supplemented with 10% (v/v) Fetal Calf Serum (FCS, Gibco, Paisley, UK), 1% (v/v) L-glutamine (Gibco, Paisley, UK) and an antibiotic mixture (150 Units/ml penicillin and 150 μg/ml streptomycin; Gibco, UK)) to remove residual host contamination and incubated in a humidified environment containing 5% CO2 at 37 °C for at least 1 h.
Juvenile worms were distributed in a 96-well tissue culture plate (n = 20–25 individuals/well) containing 200 μl/well. Compounds were added to each treatment well at a concentration range of 10–0.156 μM. Negative (1.25% DMSO) and positive (15 μM PZQ and 15 μM AUR in 1.25% DMSO) controls were also included in each drug screen. Treated juvenile worms were incubated for 72 h in a humidified environment containing 5% CO2 at 37 °C. Compound-induced phenotype and motility effects were quantified using an adapted version of the WHO-TDR scoring system (in summary: 0 = dead, 1 = movement of the suckers only and slight contraction of the body, 2 = movement at the anterior and posterior regions only, 3 = full body movement but sluggish and 4 = normal movement). Additionally, differential uptake of propidium iodide (PI, P1304MP, Sigma-Aldrich, UK) was used to quantify worm viability as previously described. In brief, after 15 min incubation with 2 μg/ml PI, the parasite cultures were imaged under both bright-field and fluorescent settings (PI detection, 562 and 624 excitation and emission wavelengths, respectively) using an ImageXpressXL high content imager (Molecular Devices, UK). Enumeration of PI positive and negative juvenile worms was manually performed across all parasites within the well and the percentage of PI positive parasite was calculated per well.

HepG2 cells = assay: HepG2 MTT cytotoxicity assay; details: for CC50: Table 2, MTT; for Selectivity Index (SI) Adult worms: HepG2 CC50 versus adult worm EC50; for Selectivity Index (SI) Somula: HepG2 CC50 versus schistosomula EC50
Protocol: Initially the cells were handled under sterile conditions and grown at 37 °C in a humidified atmosphere containing 5% CO2. Cytotoxicity was evaluated by way of a 3-(4, 5- dimethylthiazol-2-yl)-2,5-diphenyl tetrazolium bromide (MTT) assay as previously described. The cells were counted in a dual chamber counting slide using the BIORAD TC-10 Automated cell counter, seeded in a 96-well plate (Fisher Scientific, Loughborough, UK) at a density of 2 × 10^4 cells/well and incubated in an atmosphere of 5% CO2 at 37 °C. […] The absorbance readings (at 570 nm) of the soluble formazan crystals were recorded using PolarStar Omega plate reader (BMG-Labtech). […] The latter was used to calculate the selectivity index (SI) of the compounds presented herein.

S. mansoni adult worms = assay: S. mansoni adult worm motility screen (WormassayGP2), 72 h; assay type: cell-based, Schistosoma mansoni; details: Schistosoma mansoni
Description: as §1
For the evaluation of anti-schistosomal activity on the adult stage of the parasite, 7-wk old worms were transferred into 48 well tissue culture plates (1–3 worm pairs/well, in duplicate). […] DMSO (0.5%) and praziquantel (10 μM in 0.5% DMSO) were also included as negative and positive control treatments. Treated adult worms were incubated for 72 h in a humidified environment containing 5% CO2 at 37 °C. Parasite motility after compound treatment was assessed by a digital image processing-based system (WormassayGP2), modified after Wormassay. Following compound-parasite co-incubation, eggs were collected, fixed in formalin (10% v/v formaldehyde) and enumerated aiming to collect further information on any compound-induced effects on parasite fecundity and IVLE production.

[2] = tested on: adult S. japonicum male worms; assay: In vitro screening of S. japonicum adults at 100 nM (WormAssay motility, descriptors, severity score); assay type: cell-based, Schistosoma japonicum
Protocol: For each species, parasite recovery involved reverse perfusion of the hepatic portal and mesenteric system using DMEM (Fisher Scientific). Parasites were washed six times with Basch 169 medium supplemented with 100 U/ml penicillin and 100 μg/ml streptomycin before manually distributing approximately 5 males per well (on occasion 1 or 2 females might also be present) of a 24-well plate (Corning Costar 3524). […] The next morning, a final concentration of 100 nM compound (in 1 μL DMSO) was added to each well and the final volume made up to 2 ml with Basch 169 medium supplemented with antibiotics and FBS. Each compound was tested in triplicate (except for some instances tested in duplicate). […] The phenotypic characterisation of compound effects focused on male worms due to the greater range of their motility characteristics that include flexing, bending, stretching, sucker walking and adherence, compared to the more sedentary female worms. In addition to descriptors, WormAssay, as adapted for the schistosome, was used to measure average worm motility per well [72, 73].

[3] = Schistosoma mansoni, 72 h, Table 2, average of phenotype and motility EC50, 72 h, read-out: Activity on schistosomula (EC50, μM - 72 h) Average
[4] = Schistosoma mansoni, 72 h, Table 2, motility, 72 h, three replicate titrations (0.313–10 μM), read-out: Activity on schistosomula (EC50, μM - 72 h) M
[5] = Schistosoma mansoni, 72 h, Table 2, phenotype, 72 h, three replicate titrations (0.313–10 μM), read-out: Activity on schistosomula (EC50, μM - 72 h) P
[6] = Schistosoma mansoni, Table 4, Series A, read-out: Anti-schistosomal activity EC50 Schistosomula (μM) Motility
[7] = Schistosoma mansoni, Table 4, Series A, read-out: Anti-schistosomal activity EC50 Schistosomula (μM) Phenotype
[8] = Table 4, Series A, read-out: Anti-schistosomal activity EC50 Adult (nM) Motility
[9] = Table 2, 72 h, titrations 0.0095–5 μM, WormassayGP2, read-out: Activity on adult worms (EC50, μM - 72 h) Motility

SMILES | EC50 (S. mansoni schistosomula; [3]) | EC50 (S. mansoni schistosomula; [4]) | EC50 (S. mansoni schistosomula; [5]) | EC50 (S. mansoni schistosomula; [6]) | EC50 (S. mansoni schistosomula; [7]) | EC50 (S. mansoni adult worms; [8]) | EC50 (S. mansoni adult worms; [9]) | Selectivity Index (SI) Adult worms (HepG2 cells) | Selectivity Index (SI) Somula (HepG2 cells) | other results
CC(=O)OC[C@H]1O[C@@H]([S-])[C@H](OC(C)=O)[C@@H](OC(C)=O)[C@@H]1OC(C)=O.CCP(CC)CC.[Au+] [AUR, Auranofin, reference compound] |  |  |  |  |  |  |  |  |  | EC50 (S. mansoni schistosomula; Table 1, 72 h, two dose response titrations (0.313–10 μM), 95% CI in brackets, read-out: Activity on schistosomula (EC50, μM - 72 h) Motility): 0.45 µM; EC50 (S. mansoni schistosomula; Table 1, mean of phenotype and motility EC50, 72 h, read-out: Activity on schistosomula (EC50, μM - 72 h) Average): 0.41 µM; EC50 (S. mansoni schistosomula; Table 2, average of phenotype and motility EC50, 72 h, read-out: Activity on schistosomula (EC50, μM - 72 h) Average): 0.41 µM; EC50 (S. mansoni schistosomula; Table 2, motility, 72 h, three replicate titrations (0.313–10 μM), read-out: Activity on schistosomula (EC50, μM - 72 h) M): 0.45 µM; EC50 (S. mansoni schistosomula; Table 2, phenotype, 72 h, three replicate titrations (0.313–10 μM), read-out: Activity on schistosomula (EC50, μM - 72 h) P): 0.37 µM; PI pos [1]: 0%; CC50 (HepG2 cells; read-out: HepG2 cells (CC50, μM) 24 h, 24 h co-incubation): 5.07 µM; CC50 (HepG2 cells; read-out: HepG2 cells (CC50, μM) 72 h, 72 h co-incubation): 2.94 µM
O=[N+]([O-])c1ccc2nc(Nc3cccc(Cl)c3)c(Nc3cccc(Cl)c3)nc2c1 [Compound 25, N^2, N^3-bis(3-chlorophenyl)-6-nitroquinoxaline-2,3-diamine] | 1.26 µM | 1.3 µM | 1.22 µM | 1.3 µM | 1.22 µM | 12 nM | 12 nM | 47.99 | 0.46 | Effect on S. japonicum adult male worms ([2]; 5, 24, 48 and 72 h): decreased motility starting at 48 h; SEVERITY SCORES 5 h ([2]; S. japonicum, 5 h, max = 4, one line per replicate): 0; SEVERITY SCORES 24 h ([2]; S. japonicum, 24 h, max = 4, one line per replicate): 0; SEVERITY SCORES 48 h ([2]; S. japonicum, 48 h, max = 4, one line per replicate): 2; DESCRIPTORS 48 h ([2]; S. japonicum, 48 h, one line per replicate): S, on sides; SEVERITY SCORES 72 h ([2]; S. japonicum, 72 h, max = 4, one line per replicate): 2; DESCRIPTORS 72 h ([2]; S. japonicum, 72 h, one line per replicate): S+, on sides
O=[N+]([O-])c1ccc2nc(Nc3ccc(Br)cc3)c(Nc3ccc(Br)cc3)nc2c1 [Compound 29, N2, N3-bis(4-bromophenyl)-6-nitroquinoxaline-2,3-diamine] | 0.71 µM | 0.65 µM | 0.78 µM | 0.83 µM | 1.06 µM | 122 nM | 122 nM | 32.52 | 5.55 | 
